Measurements as given in patent publication US9963453B2, “Substituted pyrazino[1,2-a]indoles as sigma receptor activity modulators” (LABORATORIOS DEL DR. ESTEVE S.A., priority 2013, dated 2018).
Structures can show the parent of a compound that is named as a salt.

Biological target: human sigma 1 receptor (Homo sapiens (Human), UniProt Q99720)
Assay: Human Sigma 1 Receptor Radioligand Assay
Format: binding
Details: transfected HEK-293 membranes, 5 nM [3H](+)-pentazocine as radioligand, 37° C., 120 minutes
Procedure: Human Sigma 1 Receptor Radioligand Assay
To investigate binding properties of sigma 1 receptor ligands to human sigma 1 receptor, transfected HEK-293 membranes and [^3H](+)-pentazocine (Perkin Elmer, NET-1056), as the radioligand, were used. The assay was carried out with 7 μg of membrane suspension, 5 nM of [^3H](+)-pentazocine in either absence or presence of either buffer or 10 μM Haloperidol for total and non-specific binding, respectively. Binding buffer contained Tris-HCl 50 mM at pH 8. Plates were incubated at 37° C. for 120 minutes. After the incubation period, the reaction mix was then transferred to MultiScreen HTS, FC plates (Millipore), filtered and plates were washed 3 times with ice-cold 10 mM TrisHCL (pH7.4). Filters were dried and counted at approximately 40% efficiency in a MicroBeta scintillation counter (Perkin-Elmer) using EcoScint liquid scintillation cocktail.

human sigma 1 receptor, sequence (Q99720 whole entry): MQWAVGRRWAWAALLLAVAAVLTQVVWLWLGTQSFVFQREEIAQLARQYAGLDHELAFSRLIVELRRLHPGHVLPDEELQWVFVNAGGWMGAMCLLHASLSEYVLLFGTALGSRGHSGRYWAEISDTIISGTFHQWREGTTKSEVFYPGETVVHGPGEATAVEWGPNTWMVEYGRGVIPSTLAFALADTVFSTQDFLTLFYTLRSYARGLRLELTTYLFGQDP

Structure (SMILES) | Ki [nM] | Ki (maleate) [nM]
CC(C(=O)N1CCn2c(cc3ccccc32)C1)N1CCN(C)CC1 (stereo not drawn) [Example 1, 1-(3,4-dihydropyrazino[1,2-a]indol-2(1H)-yl)-2-(4-methylpiperazin-1-yl)propan-1-one] | 105 | –
CN1CCN(C(C)(C)C(=O)N2CCn3c(cc4ccccc43)C2)CC1 [Example 2, 1-(3,4-dihydropyrazino[1,2-a]indol-2(1H)-yl)-2-methyl-2-(4-methylpiperazin-1-yl)propan-1-one] | 96.1 | –
CC(CC(=O)N1CCn2c(cc3ccccc32)C1)N1CCN(C)CC1 (stereo not drawn) [Example 3, 1-(3,4-dihydropyrazino[1,2-a]indol-2(1H)-yl)-3-(4-methylpiperazin-1-yl)butan-1-one] | 68.2 | –
O=C(CN1CCCCCC1)N1CCn2c(cc3ccccc32)C1 [Example 4, 2-(azepan-1-yl)-1-(3,4-dihydropyrazino[1,2-a]indol-2(1H)-yl)ethanone hydrochloride] | 10.2 | –
O=C(CN1CCCCC1)N1CCn2c(cc3ccccc32)C1 [Example 5, 1-(3,4-dihydropyrazino[1,2-a]indol-2(1H)-yl)-2-(piperidin-1-yl)ethanone hydrochloride] | 39.8 | –
O=C(CN1CCC(Cc2ccccc2)CC1)N1CCn2c(cc3ccccc32)C1 [Example 6, 2-(4-benzylpiperidin-1-yl)-1-(3,4-dihydropyrazino[1,2-a]indol-2(1H)-yl)ethanone hydrochloride] | 14.4 | –
CC(C(=O)N1CCn2c(cc3ccccc32)C1)N1CCCCCC1 (stereo not drawn) [Example 7, 2-(azepan-1-yl)-1-(3,4-dihydropyrazino[1,2-a]indol-2(1H)-yl)propan-1-one] | 24.8 | –
CC(C(=O)N1CCn2c(cc3ccccc32)C1)N1CCCCCC1 (stereo not drawn) [Example 8, 2-(azepan-1-yl)-1-(3,4-dihydropyrazino[1,2-a]indol-2(1H)-yl)propan-1-one maleate] | – | 29.6
CC(C(=O)N1CCn2c(cc3ccccc32)C1)N1CCCCC1 (stereo not drawn) [Example 9, 1-(3,4-dihydropyrazino[1,2-a]indol-2(1H)-yl)-2-(piperidin-1-yl)propan-1-one] | 129 | –
CC(C(=O)N1CCn2c(cc3ccccc32)C1)N1CCC(Cc2ccccc2)CC1 (stereo not drawn) [Example 10, 2-(4-benzylpiperidin-1-yl)-1-(3,4-dihydropyrazino[1,2-a]indol-2(1H)-yl)propan-1-one] | 25 | –
CN(C)CCCC(=O)N1CCn2c(cc3ccccc32)C1 [Example 11, 1-(3,4-dihydropyrazino[1,2-a]indol-2(1H)-yl)-4-(dimethylamino)butan-1-one] | 60.8 | –
O=C(CN1CCCCCC1)N1CCn2c(cc3cc(F)ccc32)C1 [Example 12, 2-(azepan-1-yl)-1-(8-fluoro-3,4-dihydropyrazino[1,2-a]indol-2(1H)-yl)ethanone] | 14.6 | –
Cc1ccc2c(c1)cc1n2CCN(C(=O)C(C)N2CCCCCC2)C1 (stereo not drawn) [Example 13, 2-(azepan-1-yl)-1-(8-methyl-3,4-dihydropyrazino[1,2-a]indol-2(1H)-yl)propan-1-one] | 69.7 | –
Cc1c2n(c3ccccc13)CCN(C(=O)CN1CCCCC1)C2 [Example 14, 1-(10-methyl-3,4-dihydropyrazino[1,2-a]indol-2(1H)-yl)-2-(piperidin-1-yl)ethanone] | 24 | –
Cc1c2n(c3ccccc13)CCN(C(=O)CN1CCC(Cc3ccccc3)CC1)C2 [Example 15, 2-(4-benzylpiperidin-1-yl)-1-(10-methyl-3,4-dihydropyrazino[1,2-a]indol-2(1H)-yl)ethanone] | 26.2 | –
O=C(CCCN1CCCCC1)N1CCn2c(cc3cc(F)ccc32)C1 [Example 16, 1-(8-fluoro-3,4-dihydropyrazino[1,2-a]indol-2(1H)-yl)-4-(piperidin-1-yl)butan-1-one] | 22.2 | –
O=C(CCN1CCCCCC1)N1CCn2c(cc3ccccc32)C1 [Example 17, 3-(azepan-1-yl)-1-(3,4-dihydropyrazino[1,2-a]indol-2(1H)-yl)propan-1-one] | 10.9 | –
C[C@@H](C(=O)N1CCn2c(cc3ccccc32)C1)N1CCN(C)CC1 [Example 19, (S)-1-(3,4-dihydropyrazino[1,2-a]indol-2(1H)-yl)-2-(4-methylpiperazin-1-yl)propan-1-one] | 55.9 | –
O=C(CCCN1CCCCC1)N1CCn2c(cc3ccccc32)C1 [Example 20, 1-(3,4-dihydropyrazino[1,2-a]indol-2(1H)-yl)-4-(piperidin-1-yl)butan-1-one] | 28.8 | –
O=C(CCCN1CCCCCC1)N1CCn2c(cc3cc(F)ccc32)C1 [Example 21, 4-(azepan-1-yl)-1-(8-fluoro-3,4-dihydropyrazino[1,2-a]indol-2(1H)-yl)butan-1-one] | 21.9 | –

Structure (SMILES) | Ki [nM] | Ki (maleate) [nM]
CN1CCN(CCCC(=O)N2CCn3c(cc4ccccc43)C2)CC1 [Example 22, 1-(3,4-dihydropyrazino[1,2-a]indol-2(1H)-yl)-4-(4-methylpiperazin-1-yl)butan-1-one] | 292 | –
CC(C(=O)N1CCn2c(cc3ccccc32)C1)N1CCN(C2CCCCC2)CC1 (stereo not drawn) [Example 24, 2-(4-cyclohexylpiperazin-1-yl)-1-(3,4-dihydropyrazino[1,2-a]indol-2(1H)-yl)propan-1-one] | 37.6 | –
CC(C(=O)N1CCN2c3ccccc3CC2C1)N1CCN(C)CC1 (stereo not drawn) [Example 25, 2-(4-methylpiperazin-1-yl)-1-(3,4,10,10a-tetrahydropyrazino[1,2-a]indol-2(1H)-yl)propan-1-one] | 118 | –
CC(C(=O)N1CCn2c(cc3cc(F)ccc32)C1)N1CCN(C)CC1 (stereo not drawn) [Example 26, 1-(8-fluoro-3,4-dihydropyrazino[1,2-a]indol-2(1H)-yl)-2-(4-methylpiperazin-1-yl)propan-1-one] | 123 | –
CC(C(=O)N1CCn2c(cc3cc(F)ccc32)C1)N1CCN(C2CCCCC2)CC1 (stereo not drawn) [Example 27, 2-(4-cyclohexylpiperazin-1-yl)-1-(8-fluoro-3,4-dihydropyrazino[1,2-a]indol-2(1H)-yl)propan-1-one] | 25.6 | –
CCN1CCN(C(C)C(=O)N2CCn3c(cc4cc(F)ccc43)C2)CC1 (stereo not drawn) [Example 29, 2-(4-ethylpiperazin-1-yl)-1-(8-fluoro-3,4-dihydropyrazino[1,2-a]indol-2(1H)-yl)propan-1-one] | 125 | –
CCN(CC)CCNC(C)C(=O)N1CCn2c(cc3ccccc32)C1 (stereo not drawn) [Example 30, 2-(2-(diethylamino)ethylamino)-1-(3,4-dihydropyrazino[1,2-a]indol-2(1H)-yl)propan-1-one] | 241 | –
C[C@H](C(=O)N1CCN2c3ccccc3C[C@H]2C1)N1CCN(C)CC1 [Example 32, (R)-2-(4-methylpiperazin-1-yl)-1-((S)-3,4,10,10a-tetrahydropyrazino[1,2-a]indol-2(1H)-yl)propan-1-one] | 234 | –
C[C@@H](C(=O)N1CCN2c3ccccc3C[C@@H]2C1)N1CCN(C)CC1 [Example 33, (S)-2-(4-methylpiperazin-1-yl)-1-((R)-3,4,10,10a-tetrahydropyrazino[1,2-a]indol-2(1H)-yl)propan-1-one] | 84.3 | –
C[C@@H](C(=O)N1CCN2c3ccccc3C[C@H]2C1)N1CCN(C)CC1 [Example 34, (S)-2-(4-methylpiperazin-1-yl)-1-((S)-3,4,10,10a-tetrahydropyrazino[1,2-a]indol-2(1H)-yl)propan-1-one] | 56.5 | –
CC(C(=O)N1CCn2c(cc3ccccc32)C1)N1CCC(N2CCCCC2)CC1 (stereo not drawn) [Example 37, 2-(1,4′-bipiperidin-1′-yl)-1-(3,4-dihydropyrazino[1,2-a]indol-2(1H)-yl)propan-1-one] | 500 | –
CCC(C(=O)N1CCn2c(cc3ccccc32)C1)N1CCN(C)CC1 (stereo not drawn) [Example 38, 1-(3,4-dihydropyrazino[1,2-a]indol-2(1H)-yl)-2-(4-methylpiperazin-1-yl)butan-1-one] | 89.3 | –
CCC(C(=O)N1CCn2c(cc3ccccc32)C1)N(C)CCN(C)C (stereo not drawn) [Example 39, 1-(3,4-dihydropyrazino[1,2-a]indol-2(1H)-yl)-2-((2-(dimethylamino)ethyl)(methyl)amino)butan-1-one] | 427 | –
CC(CN1CCN(C)CC1)C(=O)N1CCn2c(cc3ccccc32)C1 (stereo not drawn) [Example 41, 1-(3,4-dihydropyrazino[1,2-a]indol-2(1H)-yl)-2-methyl-3-(4-methylpiperazin-1-yl)propan-1-one] | 73 | –
CN(C)CCCC(=O)N1CCN2c3ccccc3CC2C1 (stereo not drawn) [Example 43, 4-(dimethylamino)-1-(3,4,10,10a-tetrahydropyrazino[1,2-a]indol-2(1H)-yl)butan-1-one] | 151 | –
CN1CCN(C(C)(C)C(=O)N2CCN3c4ccccc4CC3C2)CC1 (stereo not drawn) [Example 44, 2-methyl-2-(4-methylpiperazin-1-yl)-1-(3,4,10,10a-tetrahydropyrazino[1,2-a]indol-2(1H)-yl)propan-1-one] | 175 | –
CC[C@@H](C(=O)N1CCn2c(cc3ccccc32)C1)N1CCN(C)CC1 [Example 46, (S)-1-(3,4-dihydropyrazino[1,2-a]indol-2(1H)-yl)-2-(4-methylpiperazin-1-yl)butan-1-one] | 75.5 | –
C[C@H](CN1CCN(C)CC1)C(=O)N1CCn2c(cc3ccccc32)C1 [Example 47, (R)-1-(3,4-dihydropyrazino[1,2-a]indol-2(1H)-yl)-2-methyl-3-(4-methylpiperazin-1-yl)propan-1-one] | 49.5 | –
C[C@@H](CN1CCN(C)CC1)C(=O)N1CCn2c(cc3ccccc32)C1 [Example 48, (S)-1-(3,4-dihydropyrazino[1,2-a]indol-2(1H)-yl)-2-methyl-3-(4-methylpiperazin-1-yl)propan-1-one] | 142 | –
